US9386766B2, “Insect attractant compositions” (University of Greenwich, priority 2009, dated 2016)

Assays:
Lampides boeticus = assay: Floral bait trap catches of non-target insects (Example 2); type: in vivo; conditions: Trial 1; Narakoduru, Warangal District, AP, India; Cotton
Text: (§1) In addition, five pheromone baited traps (baited with the pheromone of the key Helicoverpa and related spp.) were used as standards for each target species. Lures were changed every two to three weeks.
(§2) The choice of pheromone trap depended on local availability. In India, the preferred trap was the standard Pheromone Chemicals Ltd. plastic funnel trap, while in Bangladesh a plastic water trap was used. Pheromone lures for the trials were provided by NRI. In India and Bangladesh, H. armigera, Maruca vitrata, Earias vittella and Pectinophora gossypiella lures were provided.
(§3) The floral baits were provided in sealed lay-flat polyethylene sachets. The sachets were hung inside the traps in the same way as the pheromone lures. Traps were supported at crop height and the height was adjusted periodically to account for crop growth. Yellow-coloured traps were avoided in order to deter pollinators. Preferably, traps should be colourless or green-coloured. Trap covers were opaque. Where necessary, a killing agent was incorporated into each trap—to ensure insects were dead before opening the trap to count catches.
(§4) In Tables 17 to 23 the total catches of selected Lepidoptera, Hymenoptera (Apis mellifera and Bombus spp.) and Diptera are shown.

Apis mellifera = assay: as above; type: in vivo; conditions: Trial 1; Narakoduru, Warangal District, AP, India; Cotton
Text: as §1, §2, §3, §4

Diptera = assay: as above; type: in vivo; conditions: Trial 1; Narakoduru, Warangal District, AP, India; Cotton
Text: as §1, §2, §3, §4

Autographa gama = assay: as above; type: in vivo; conditions: Trial 1; Narakoduru, Warangal District, AP, India; Cotton
Text: as §1, §2, §3, §4

Diaphania indica = assay: as above; type: in vivo; conditions: Trial 1; Narakoduru, Warangal District, AP, India; Cotton
Text: as §1, §2, §3, §4

Spodoptera litura = assay: as above; type: in vivo; conditions: Trial 1; Narakoduru, Warangal District, AP, India; Cotton
Text: as §1, §2, §3, §4

Bombus spp. = assay: as above; type: in vivo; conditions: Trial 1; Narakoduru, Warangal District, AP, India; Cotton
Text: as §1, §2, §3, §4

Other Lepidoptera = assay: as above; type: in vivo; conditions: Trial 1; Narakoduru, Warangal District, AP, India; Cotton
Text: as §1, §2, §3, §4

Parnara guttatus = assay: as above; type: in vivo; conditions: Trial 1; Narakoduru, Warangal District, AP, India; Cotton
Text: as §1, §2, §3, §4

All Lepidoptera = assay: Field trials in India: floral bait trap catches, Trials 1-5 (Example 2); type: in vivo; conditions: Trial 1; for Total catches All Lepidoptera: Cotton; for Attractiveness to the non-target species recorded: species of Table 17
Text: as §1, §2, §3
(§5) Trial 1 was designed to investigate the effect of altering the relative amount of the two main components, phenylacetaldhyde and salicylaldehyde on catch. The trial was laid out in cotton fields at four locations: Narakoduru and Jammikunta in Andhra Pradesh, India, and Shreepur and Jessore in Bangladesh.
In India, records were taken of all Lepidopterous species caught in the traps. The total Lepidoptera catches reflected the general trends in H. armigera catches. […] Thus blends containing between 3 and 30 percent salicylaldehyde relative to phenylacetaldehyde were on average the most attractive of the binary blends tested. […]

H. armigera [1] = assay: Field trials in India and Bangladesh: floral bait trap catches, Trials 1-5 (Example 2); type: in vivo, Helicoverpa armigera; conditions: Trial 1; Jessore; Country bean
H. armigera [2] = assay: as above; type: in vivo, Helicoverpa armigera; conditions: Trial 1; for Total catches H. armigera: Cotton
Text: as §1, §2, §3, §5
In Trial 2, the standard 5-component blend used in Example 1 (96/12) was compared to: Magnet® (96/10), Li et al. (2005) (96/11) and a binary blend of phenylacetaldehyde and salicylaldehyde (96/13).
In Trial 3, a third component was added to a roughly 70:30 blend of phenylacetaldehyde:salicylaldehyde, to assess whether the additional compound made the binary blend more attractive to nocturnal Lepidoptera. The compositions of the blends tested are shown in Table 11 and the results in Table 12.
In Trial 4, two compounds were added to a 70:30 blend of phenylacetaldehyde:salicylaldehyde, to assess whether the additional compounds made the binary blend more attractive to nocturnal Lepidoptera. The compositions of the blends tested are shown in Table 13 and the results in Table 14.
In Trial 5, the three compounds, methyl 2-methoxybenzoate, linalool and limonene were added to the binary 70:30 blend of phenylacetaldehyde:salicylaldehyde in two ratios, 1:1:1 and 1:1:0.5 at 3, 9, 30 and 90% w/w of the binary blend, to assess whether the additional compounds made the binary blend more attractive to nocturnal Lepidoptera. The compositions of the blends tested are shown in Table 15 and the results in Table 16.

[3] = system: female Helicoverpa armigera; conditions: Pawar et al., 1993; cited from earlier work
H. armigera [4] = assay: Field trials in Bangladesh: trap catch with floral odour lures (Example 1); type: in vivo, Helicoverpa armigera; conditions: Table 1; increasing relative amount of minor components; adult H. armigera
Procedure: Lures were prepared from heat-sealed low density polyethylene sachets formed from ‘layflat plastic’ tubing. In early field work, the lures were prepared on site, with each lure comprising a single compound in a dose of 0.1 ml. The release rate of compounds from the polyethylene sachets is independent of the amount of material in the sachet and so a particular dosage affects longevity only. Longevity, in turn, is dependent on ambient temperature, with an increase of 7-10° C. leading to a doubling of the release rate. Water traps were placed at crop height and trap catches were taken as a crude measure of attractiveness to the compounds. As the compounds mimic ‘floral odours’ generally, they were not expected to be species-specific in their effect.
During testing, different combinations of floral odours, together with H. armigera pheromone, were used as attractants. The chemicals were put inside sealed plastic sachets (10×5 cm) and the sachets were hung inside traps prepared from clear plastic pots (19 cm height, 15 cm dia.) with two triangular holes (12 cm base, 9 cm height) at opposite sides. The traps were set at 1 m height with an inter-trap distance of 10 m. Insects that were trapped by the lures were collected, identified and recorded at weekly intervals.

Compound | Total catches Lampides boeticus (Lampides boeticus) | Total catches Apis mellifera (Apis mellifera) | Total catches Diptera (Diptera) | Total catches Autogr. gama (Autographa gama) | Total catches Diaphania indica (Diaphania indica) | Total catches Spodopt. litura (Spodoptera litura) | Total catches Bombus spp. (Bombus spp.) | Total catches Other Lepidop. (Other Lepidoptera) | Total catches Parnara guttat. (Parnara guttatus) | Total catches All Lepidoptera (All Lepidoptera; Jammikunta KVK) | Total catches All Lepidoptera (All Lepidoptera; Narakoduru, Guntur) | Attractiveness to the non-target species recorded (All Lepidoptera) | Total catches H. armigera (H. armigera [1]) | Attractiveness to H. armigera (H. armigera [2]) | Total catches H. armigera (H. armigera [2]; Jammikunta KVK) | Total catches H. armigera (H. armigera [2]; Jessore) | Total catches H. armigera (H. armigera [2]; Narakoduru, Guntur) | Total catches H. armigera (H. armigera [2]; Shreepur) | Attraction of female Helicoverpa armigera [3] | H. armigera Catch (H. armigera [4])
O=Cc1ccccc1O [96/01, salicylaldehyde] | 0 | 10 | 1 | 0 | 1 | 1 | 0 | 6 | 0 | 3 | 8 | unattractive | 3 | attractive | 0 | 16 | 0 | 1 |  | 
O=CCc1ccccc1 [96/09, phenylacetaldehyde] | 1 | 18 | 8 | 12 | 13 | 1 | 1 | 67 | 14 | 15 | 94 | attractive | 0 |  | 1 | 30 | 1 | 20 | strong attractant | 9
